Assays:
FGFR3-K650E = molecular target: T1, FGFR3-K650E (Homo sapiens, UniProt P22607, K650E); test: in cellulo FGFR3 phosphorylation in HEK 293 VNR cells transfected with FGFR3-K650E (immunoprecipitation, western blot); assay type: cell-based
T1 construct: expressed in transfected cells; host or cells: HEK 293 VNR cells

FGFR3 WT = FGFR3 WT (Homo sapiens, UniProt P22607); test: in vitro inhibition of FGFR3 (WT); assay type: biochemical
Chain of FGFR3 WT (P22607 23-806): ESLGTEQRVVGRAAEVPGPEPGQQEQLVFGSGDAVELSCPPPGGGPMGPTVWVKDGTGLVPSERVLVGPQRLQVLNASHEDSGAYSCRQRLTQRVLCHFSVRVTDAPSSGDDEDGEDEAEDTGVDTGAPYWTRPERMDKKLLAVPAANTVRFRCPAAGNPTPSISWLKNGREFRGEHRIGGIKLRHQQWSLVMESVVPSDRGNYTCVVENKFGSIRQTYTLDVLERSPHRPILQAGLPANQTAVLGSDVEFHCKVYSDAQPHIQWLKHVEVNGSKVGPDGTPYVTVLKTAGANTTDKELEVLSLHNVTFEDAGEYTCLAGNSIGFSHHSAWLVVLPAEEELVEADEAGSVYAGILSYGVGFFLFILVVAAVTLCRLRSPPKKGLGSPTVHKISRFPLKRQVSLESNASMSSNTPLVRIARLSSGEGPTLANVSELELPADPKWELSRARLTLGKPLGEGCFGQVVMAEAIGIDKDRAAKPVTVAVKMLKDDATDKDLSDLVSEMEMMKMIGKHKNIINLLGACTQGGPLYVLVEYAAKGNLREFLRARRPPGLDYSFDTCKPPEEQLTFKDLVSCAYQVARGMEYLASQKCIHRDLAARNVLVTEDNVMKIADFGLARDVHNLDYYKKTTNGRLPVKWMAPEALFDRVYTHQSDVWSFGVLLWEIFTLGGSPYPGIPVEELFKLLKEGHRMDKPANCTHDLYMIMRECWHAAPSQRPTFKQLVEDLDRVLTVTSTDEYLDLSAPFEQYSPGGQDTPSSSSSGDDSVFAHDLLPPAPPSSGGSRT

T1 sequence (P22607 23-806 K650E): as the sequence (P22607 23-806) above, with K628E counted along it

COC(=O)c1c(NC(C)=O)c(-c2noc(-c3ccc(Br)cc3)n2)nn1-c1cccc(OC)c1 [Cpd 24, Methyl 4-acetamido-3-(5-(4-bromophenyl)-1,2,4-oxadiazol-3-yl)-1-(3-methoxyphenyl)-1H-pyrazole-5-carboxylate]
IC50 (FGFR3-K650E): 150 nM | melting point: 224 °C

COC(=O)c1c(NC(C)=O)c(-c2noc(-c3ccc([N+](=O)[O-])cc3)n2)nn1-c1cccc(OC)c1 [Cpd 25]
inhibition at 0.5 µM (FGFR3-K650E; HEK293, @ 500 nM, K650E): 0%

COC(=O)c1c(NC(C)=O)c(-c2noc(-c3ccc(N(C)C)cc3)n2)nn1-c1cccc(OC)c1 [Cpd 27, Methyl 4-acetamido-3-(5-(4-(dimethylamino)phenyl)-1,2,4-oxadiazol-3-yl)-1-(3-methoxyphenyl)-1H-pyrazole-5-carboxylate]
melting point: 196 °C

COC(=O)c1c(NC(C)=O)c(-c2noc(-c3ccc([N+](=O)[O-])cc3)n2)nn1-c1cccc(-c2cn(Cc3ccccc3)nn2)c1 [Cpd 64]
IC50 (FGFR3 WT; no qualifier printed (column % in vitro inhibition)): 2000 nM

CC(=O)Nc1c(-c2noc(-c3ccc([N+](=O)[O-])cc3)n2)nn(-c2cccc(-c3cn(Cc4ccccc4)nn3)c2)c1C(=O)NCc1ccccc1 [Cpd 79]
inhibition at 10 µM (FGFR3 WT): 21% | inhibition at 50 µM (FGFR3 WT): 97%

COC(=O)c1c(NC(C)=O)c(-c2noc(-c3ccccc3)n2)nn1-c1cccc(OC)c1 [Cpd 134, Methyl 4-acetamido-1-(3-methoxyphenyl)-3-(5-phenyl-1,2,4-oxadiazol-3-yl)-1H-pyrazole-5-carboxylate]
melting point: 186 to 188 °C

COC(=O)c1c(NC(C)=O)c(-c2noc(-c3ccc([N+](=O)[O-])cc3)n2)nn1-c1cccc(OC)c1 [Example 2, Methyl 4-acetamido-1-(3-methoxyphenyl)-3-(5-(4-nitrophenyl)-1,2,4-oxadiazol-3-yl)-1H-pyrazole-5-carboxylate]
melting point: 248 °C

From patent US20180237424A1, “FGFR3 ANTAGONISTS” (INSERM (INSTITUT NATIONAL DE LA SANTE ET DE LA RECHERCHE …, priority 2015, published 2018)
